In patent publication US20070065524A1, “Pharmaceutical composition containing guaiacol derivatives and syringol derivatives extracted from natural plant vinegar” (priority 2003, published 2007):

Assay: DPPH free radical scavenging ability
Format: biochemical
Description: For example, a method using DPPH(1,1-diphenyl-2-picrylhydrazin) can be used.
DPPH scavenging ability, as described later, was evaluated by using each fraction.
4 ml of samples with 0.1, 0.05, 0.005, 0.001, 0.0005 and 0.0001 mg/ml diluted with methanol and 1 ml of 0.1 mM DPPH methanol solution were put into test tubes and mixed well, and left in a dark place for 30 minutes. Then absorbance of the mixture at 520 nm was read and compared with that of the BHT standard solution. The reducing power of samples can be indicated as scavenging activity (SC50) and SC50 is the concentration of samples that makes the concentration of DPPH reduce to 50%.

In the case of `Cc1cc(C(C)(C)C)c(O)c(C(C)(C)C)c1` [BHT, butylated hydroxy toluene], the “Free radical removal ability” value (Conc. 10 ug/ml) is reported as 23.30 ± 1.94%, the “Free radical removal ability” value (Conc. 50 ug/ml) is reported as 68.41 ± 1.55% and the “Free radical removal ability” value (Conc. 100 ug/ml) is reported as 87.73 ± 0.64%. The “Free radical removal ability” value (Conc. 500 ug/ml) was 96.03 ± 0.12%.
